Drawing on patent publication EP0321364A2, “Orally administrable cephalosporin derivatives, and the production and uses thereof” (ZAIDAN HOJIN BISEIBUTSU KAGAKU KENKYU KAI, priority 1987, dated 1989), this text covers MIC and dose excreted for three molecules.

In brackets after ≈: the same amount, converted by molar mass. Read-outs that look alike come from different tables or passages of the source.

Data set [1] concerns Salmonella paratyphi 1015. Description: MIC, serial dilution method in Müller-Hinton agar. Conditions: Salmonella enterica, 37°C, 18 hours. Type of data set: cell-based. Here is the method: (§1) The antibacterial activities of the cephalosporin compounds of the formula (I) according to this invention, specifically the final product compounds of the Examples 1 to 6 given hereinafter, were assayed in term of their minimum inhibitory concentrations (MIC; mcg/ml) against various test bacteria, as determined according to a standard serial dilution method in Müller-Hinton agar medium (a product of Difico company), where the incubation was made at 37°C for 18 hours. For the comparison purpose, the antibacterial spectrum of a known compound, Cefalexin (abbreviated as CEX) was also assayed in the same way as above.

Data set [2] concerns Rms212/Escherichia coli K-12 W3630. Kind of data set: MIC, serial dilution method in Müller-Hinton agar. Conditions: 18 h. Type of data set: cell-based. Here is the method: as §1
Data set [3] has as its system Rms823/Escherichia coli K-12 W3630. Description: MIC, serial dilution method in Müller-Hinton agar. Type of data set: cell-based. Conditions: 18 h. Here is the method:
as §1

Data set [4] concerns Staphylococcus aureus MS353. Kind of data set: MIC, serial dilution method in Müller-Hinton agar. Type of data set: cell-based. On the procedure: as §1
Data set [5] concerns Escherichia coli K-12 C600. Kind of data set: MIC, serial dilution method in Müller-Hinton agar. Type of data set: cell-based. Conditions: Escherichia coli, K12C600, 18 h. On the procedure: as §1
Data set [6] has as its system Klebsiella pneumoniae PCI602. Kind of data set: MIC, serial dilution method in Müller-Hinton agar. Type of data set: cell-based. Conditions: Klebsiella pneumoniae, PCI602, 18 h. Here is the method:
as §1

Data set [7] has as its system Proteus rettgeri IFO3850. Kind of data set: MIC, serial dilution method in Müller-Hinton agar. Type of data set: cell-based. Conditions: Providencia rettgeri. Here is the method: as §1
Data set [8] deals with Rms139/MI Pseudomonas aeruginosa. Kind of data set: MIC, serial dilution method in Müller-Hinton agar. Type of data set: cell-based. Conditions: 18 h. Here is the method: as §1
Data set [9] deals with Escherichia coli NIHJ-JS-2. Description: MIC, serial dilution method in Müller-Hinton agar. Type of data set: cell-based. Conditions: Escherichia coli, NIHJJS2, 18 h. On the procedure: as §1
Data set [10] has as its system Klebsiella oxytosa GN10560. Description: MIC, serial dilution method in Müller-Hinton agar. Type of data set: cell-based. The settings on record: Klebsiella oxytosa GN10560, cefuroximase producing strain, 37°C, 18 hours. Here is the method:
as §1

Data set [11] deals with Salmonella enteritidis G14. Kind of data set: MIC, serial dilution method in Müller-Hinton agar. Conditions: Salmonella enterica. Type of data set: cell-based. On the procedure: as §1
Data set [12] relates to Salmonella typhimurium IID971. Description: MIC, serial dilution method in Müller-Hinton agar. Type of data set: cell-based. The settings on record: Salmonella enterica, 18 h. On the procedure:
as §1

Data set [13] concerns Pseudomonas aeruginosa IFO3445. Description: MIC, serial dilution method in Müller-Hinton agar. Conditions: 37°C, 18 hours. Type of data set: cell-based. On the procedure:
as §1

The test system of data set [14] is Salmonella schottmulleri 8006. Kind of data set: MIC, serial dilution method in Müller-Hinton agar. Type of data set: cell-based. Conditions: 37°C, 18 hours. On the procedure:
as §1

Data set [15] concerns Proteus morganii IFO3848. Kind of data set: MIC, serial dilution method in Müller-Hinton agar. Type of data set: cell-based. Conditions: Morganella morganii; Proteus morganii IFO3848; Müller-Hinton agar, 37°C, 18 hours; read-out: MIC. Here is the method: as §1
Data set [16] has as its system Rms213/Escherichia coli K-12 W3630. Description: MIC, serial dilution method in Müller-Hinton agar. Conditions: 18 h. Type of data set: cell-based. Here is the method: as §1
Data set [17] has as its system Staphylococcus aureus Terajima. Kind of data set: MIC, serial dilution method in Müller-Hinton agar. Type of data set: cell-based. The settings on record: 37°C, 18 hours. Here is the method:
as §1

For data set [18], the system named is Salmonella typhi 901. Kind of data set: MIC, serial dilution method in Müller-Hinton agar. Conditions: Salmonella enterica, 18 h. Type of data set: cell-based. On the procedure:
as §1

Data set [19] concerns Bacillus subtilis ATCC6633. Kind of data set: MIC, serial dilution method in Müller-Hinton agar. Type of data set: cell-based. Conditions: 37°C, 18 hours. On the procedure: as §1
Data set [20] deals with Micrococcus luteus ATCC9341. Description: MIC, serial dilution method in Müller-Hinton agar. Type of data set: cell-based. Conditions: 37°C, 18 hours. On the procedure: as §1
The subject of data set [21] is Staphylococcus aureus FDA209P JC-1. Kind of data set: MIC, serial dilution method in Müller-Hinton agar. Type of data set: cell-based. Here is the method: as §1
Data set [22] has as its system Rte16/Escherichia coli K-12 W3630. Kind of data set: MIC, serial dilution method in Müller-Hinton agar. Type of data set: cell-based. The settings on record: 18 h. On the procedure:
as §1

Data set [23] relates to Proteus vulgaris OX-19. Kind of data set: MIC, serial dilution method in Müller-Hinton agar. Type of data set: cell-based. The settings on record: OX19, 37°C, 18 hours. Here is the method: as §1
Data set [24] in a line: Test 1: urinary recovery after oral administration. The settings on record: mice (ICR-strain, female), 300 mcg per mouse, urine collected until 5 hours after administration, microbial assay, molar percentage. Type of data set: in vivo. On the procedure: To mice (ICR-strain, female, 4 weeks-aged) was orally administered a new cephalosporin compound according to this invention at a dosage of 300 mcg per mouse. Until the end of 5 hours after oral administration of the test cephalosporin compound, all the volumes of urine discharged by the treated mice were collected together, and the total amount of the test compound remaining in the collected urine was measured by a microbial assay method. The urinary recovery of the test compound was calculated in terms of percentage of the molar quantity of the test compound as recovered, against the molar quantity of the test compound as orally given.

The mark [25] stands for this setting: Proteus rettgeri IFO3850, Müller-Hinton agar, 37°C, 18 hours, read-out: MIC.
[26] abbreviates: Salmonella enteritidis G14, Müller-Hinton agar, 37°C, 18 hours, read-out: MIC.
The mark [27] stands for this setting: Staphylococcus aureus MS353, Müller-Hinton agar, 37°C, 18 hours, read-out: MIC.
Where [28] appears, read: Staphylococcus aureus FDA209P JC-1, Müller-Hinton agar, 37°C, 18 hours, read-out: MIC.

One may read the MIC as the least concentration at which growth counts as inhibited. For `CC1=C(C(=O)O)N2C(=O)[C@@H](NC(=O)[C@H](N)c3ccccc3)[C@H]2SC1` [CEX, Cefalexin, reference compound], the MIC in [1] is 6.25 µg/mL (≈ 18 µM); in [2], 12.5 µg/mL (≈ 36 µM); in data set [3], 12.5 µg/mL (≈ 36 µM); in data set [4] (Staphylococcus aureus, MS353, 18 h) it was 3.13 µg/mL (≈ 9.01 µM); in data set [5], 6.25 µg/mL (≈ 18 µM); in [6] it was 3.13 µg/mL (≈ 9.01 µM). Moreover, the MIC in [7] (setting [25]) is 12.5 µg/mL (≈ 36 µM); in data set [8], over 100 µg/mL; in data set [9], 6.25 µg/mL (≈ 18 µM); in data set [10] it was over 100 µg/mL; in data set [11] (setting [26]), over 100 µg/mL; in data set [12], 6.25 µg/mL (≈ 18 µM). Besides, the MIC was over 100 µg/mL in [13]; 6.25 µg/mL (≈ 18 µM) in data set [14]; 25 µg/mL (≈ 72 µM) in [15]; 12.5 µg/mL (≈ 36 µM) in data set [16]; 0.2 µg/mL (≈ 0.576 µM) in data set [17]; 3.13 µg/mL (≈ 9.01 µM) in data set [18]. The MIC in data set [19] stood at 0.78 µg/mL (≈ 2.25 µM); in data set [20], 0.1 µg/mL (≈ 0.288 µM); in data set [21] (Staphylococcus aureus, FDA209P, 18 h) it was 3.13 µg/mL (≈ 9.01 µM); in data set [22], 12.5 µg/mL (≈ 36 µM); in [23] it was 12.5 µg/mL (≈ 36 µM).

`CC1=C(C(=O)O)N2C(=O)C(NC(=O)[C@H](N)c3ccc(CO)c(O)c3)[C@H]2SC1` (stereo partly drawn) [Example 1 Compound, 7-{(R)-2-amino-2-(3-hydroxy-4-hydroxymethylphenyl)acetamido}-3-methyl-3-cephem-4-carboxylic acid]: the MIC in data set [1] came to 12.5 µg/mL (≈ 31.8 µM); in data set [2] it was 12.5 µg/mL (≈ 31.8 µM); in data set [3] it was 100 µg/mL (≈ 254 µM); in [4] (setting [27]), 3.13 µg/mL (≈ 7.96 µM); in [5], 12.5 µg/mL (≈ 31.8 µM); in data set [6], 6.25 µg/mL (≈ 15.9 µM). Also, the MIC in data set [7] (IFO3850, 18 h) was 12.5 µg/mL (≈ 31.8 µM); in data set [8], over 100 µg/mL; in data set [9], 12.5 µg/mL (≈ 31.8 µM); in data set [10], 100 µg/mL (≈ 254 µM); in data set [11] (setting [26]), 50 µg/mL (≈ 127 µM); in [12], 6.25 µg/mL (≈ 15.9 µM). Further, the MIC in data set [13] is over 100 µg/mL; in data set [14], 12.5 µg/mL (≈ 31.8 µM); in data set [15], over 100 µg/mL; in data set [16] it was 12.5 µg/mL (≈ 31.8 µM); in data set [17] it was 0.2 µg/mL (≈ 0.508 µM); in [18] it was 6.25 µg/mL (≈ 15.9 µM). For the same molecule, the MIC in [19] came out at 0.78 µg/mL (≈ 1.98 µM); in data set [20], 0.1 µg/mL (≈ 0.254 µM); in data set [21] (setting [28]), 3.13 µg/mL (≈ 7.96 µM); in data set [22], 12.5 µg/mL (≈ 31.8 µM); in data set [23], 100 µg/mL (≈ 254 µM). In data set [24], the dose excreted was determined as 65.1%.

In the case of `COCC1=C(C(=O)O)N2C(=O)C(NC(=O)[C@H](N)c3ccc(CO)c(O)c3)[C@H]2SC1` (stereo partly drawn) [Example 2 Compound, 7-{(R)-2-amino-2-(3-hydroxy-4-hydroxymethylphenyl)acetamido}-3-methoxymethyl-3-cephem-4-carboxylic acid], the MIC in data set [1] was 12.5 µg/mL (≈ 29.5 µM); in [2], 50 µg/mL (≈ 118 µM); in data set [3], over 100 µg/mL; in data set [4] (setting [27]) it was 1.56 µg/mL (≈ 3.68 µM); in data set [5], 12.5 µg/mL (≈ 29.5 µM); in data set [6], 6.25 µg/mL (≈ 14.8 µM). In addition, the MIC in data set [7] (setting [25]) was 25 µg/mL (≈ 59 µM); in data set [8], over 100 µg/mL; in [9], 12.5 µg/mL (≈ 29.5 µM); in data set [10] it was over 100 µg/mL; in [11] (ENTERITIDIS, 18 h), 6.25 µg/mL (≈ 14.8 µM); in data set [12] it was 6.25 µg/mL (≈ 14.8 µM). Besides, the MIC in [13] is over 100 µg/mL; in [14] it was 6.25 µg/mL (≈ 14.8 µM); in data set [15], 50 µg/mL (≈ 118 µM); in data set [16], 12.5 µg/mL (≈ 29.5 µM); in [17], 0.2 µg/mL (≈ 0.472 µM); in data set [18], 6.25 µg/mL (≈ 14.8 µM). The minimal inhibitory concentration (MIC) in data set [19] was 0.2 µg/mL (≈ 0.472 µM); in data set [20], 0.1 µg/mL (≈ 0.236 µM); in data set [21] (setting [28]) it was 1.56 µg/mL (≈ 3.68 µM); in [22] it was 25 µg/mL (≈ 59 µM); in data set [23], 100 µg/mL (≈ 236 µM). The same molecule came in with a dose excreted in data set [24] of 48.3%.
